Measured values published in patent publication US8637462B2, “Methods for reducing platelet counts and/or platelet adhesion by administering a GC-B receptor agonist” (Mayo Foundation for Medical Education and Research, priority 2011, dated 2014).
Entries after “also recorded” stand apart in the source; their conditions may differ.

Tests used:
[1] = system: tubulin; assay: Platelet spreading assay, tubulin staining; format: cell-based; settings: FIG. 10
From the text: (§1) To confirm these findings, tubulin and actin also were stained on platelets that were viable and functionally active using a spreading assay.

[2] = system: platelets; assay: Platelet adhesion to collagen; format: cell-based, human or C57B1/6 mice; settings: for number of platelets adhered to collagen: n=5; for platelet adhesion to collagen (in words): FIG. 7; for pseudopodia formation of platelets adhered to collagen: light microscopy
Experimental: (§2) The role of CNP on platelet aggregation and platelet adhesion to fibrinogen, fibronectin, and collagen were assessed. Human platelets or platelets from C57B1/6 mice were isolated and treated with either CNP or the Lbab polypeptide for 30 minutes at 37° C. with 5% CO2. Following treatment, the platelets were gently added to cover slips pre-blocked with 1% BSA and pre-coated with fibrinogen, fibronectin, or collagen (50 μg/mL, CHRONOLOG Corp., Havertown, Pa.). Ca^+2 and Mg^+2 were added to 1 mM and 2 mM, respectively, before incubation at 37° C. for 30 minutes. The platelets were then fixed and permeabilized before staining with TRITC Phalloidin (0.5 μg/mL; Sigma) for an hour. The platelets were then gently washed a couple of times with PBS and mounted in Vectashield mounting medium (Vector laboratories, Burlingame, Calif.) and sealed with nail polish as described elsewhere (Moraes et al., J. Thromb. Haemost., 8(11):2530-41 (2010); and Bougie et al., Blood, 116(16):3033-8 (2010)). Images were acquired from five consecutive fields using a Zeiss Axioscop microscope (Carl Zeiss, Oberkochen, Germany) with a Zeiss 100× oil-immersion lens. The images were analyzed using ImageJ software.
Platelets were isolated and treated with either CNP or the mutant Lbab polypeptide for 30 minutes at 37° C. with 5% CO2. Following treatment, the platelets were gently added to cover slips pre-blocked with 1% BSA and pre-coated with collagen ([…], CHRONOLOG-corporation). Ca^+2 and Mg^+2 were added to 1 mM and 2 mM, respectively, before incubation at 37° C. for 30 minutes. The platelets were then fixed and permeabilized before staining with TRITC Phalloidin (0.5 μg/mL; Sigma) for an hour. The platelets were then gently washed a couple of times with PBS and then mounted in Vectashield mounting medium (Vector laboratories, Burlingame, Calif.) and sealed with nail polish. Images were acquired from five consecutive fields using Zeiss Axioscop microscope (Carl Zeiss, Oberkochen, Germany) with a Zeiss 100× oil-immersion lens and analyzed using ImageJ software.
Cells were placed in Trump's fixative, 4% formaldehyde: 1% glutaraldehyde for 1 hour or longer at 4° C. After two rinses in 0.1 M sodium phosphate buffer (pH 7.2), samples were dehydrated in a graded ethanol series to 100% ethanol at which time they were critical point dried with liquid carbon dioxide. They were then mounted on specimen stubs, sputter-coated with gold-palladium, and examined with a Hitachi S4700 scanning electron microscope.

[3] = system: tubulin; assay: Immunocytochemistry of tubulin in platelets (cytospin); format: cell-based; settings: human platelets; FIG. 9
Experimental: (§3) The following was performed to determine if CNP could affect cytoskeletal proteins such as tubulin and/or actin. To delineate this function of CNP, human platelets were either treated with the Lbab polypeptide or CNP and were placed on slides using cytospin Immunocytochemistry was performed with anti-tubulin or anti-actin antibodies.
PRP was spun down in a cytospin at 1000 rpm for 2 minutes to obtain slides of mouse/human platelets. These slides were fixed and blocked with 10% normal goat serum and incubated with mouse anti-tubulin antibody at 1:700 (Sigma) in PBS. Goat anti-mouse Alexa Fluor 594 at 1:500 (Molecular Probes) was used to visualize the tubulin. Matched negative controls also were used.

[4] = system: GC-B present on megakaryocytes; assay: cGMP production in megakaryocytes (BIOTRAK cGMP enzyme immunoassay); format: cell-based, mouse; settings: 30 minutes at 37° C.; FIG. 3
From the text: Primary hematopoietic progenitor cells were isolated from mouse fetal livers of E13.5 embryos (C57B1/6) or from femurs and tibias of C57B1/6 mice using the EasySep negative selection mouse hematopoietic progenitor enrichment kit (Stem Cell Technologies, Vancouver, BC). The progenitor cells were then expanded for two days in serum free expansion media containing 50% RPMI using standard techniques to generate megakaryocytes (Huang et al., J. Clin. Invest., 117(12):3890-9 (2007) and Muntean and Crispino, Blood, 106(4):1223-31 (2005)). The purity of the megakaryocytes was assessed using acetylcholinesterase (AchE) staining using standard protocols and FACS with CD41 (Emfret Analytics).
The following was performed to determine if GC-B present on megakaryocytes is functional and responsive to CNP. Megakaryocytes were treated with either CNP or a single residue mutant CNP designated Lbab for 30 minutes at 37° C. with 5% CO2 in IMDM media supplemented with 1% Nutridoma, penicillin, streptomycin, L-glutamine, and recombinant TPO. The Lbab polypeptide (FIG. 2) is described elsewhere (Yoder et al., Peptides, 29(9):1575-81 (2008)).
After the incubation, the cells were lysed, and the amount of cGMP was measured using a BIOTRAK cGMP enzyme immunoassay system Kit (GE Healthcare Bio-Sciences Corp.).

[5] = system: platelets; assay: Platelet adhesion to fibronectin; format: cell-based, human or C57B1/6 mice; settings: CNP-treated vs Lbab polypeptide-treated
Experimental: as §2

[6] = system: megakaryocytes; assay: Megakaryocyte colony formation assay (MegaCult-C); format: cell-based, mouse; settings: bone marrow cells, 6 to 8 days; FIG. 4
Experimental: To determine the effect of CNP on the colony forming ability of megakaryocytes, colony formation assays were conducted using MegaCult®-C (StemCell Tech) as per the manufacturer's protocol. Mice were euthanized, and bone marrow was collected from femurs and tibias by flushing the bones multiple times with IMDM. Once a single cell suspension was achieved, the cells were added to MegaCult®-C medium containing cytokines and collagen. The cell suspension was then dispensed into the chamber slide at the concentration of 20,000 cells/well and incubated at 37° C. with 5% CO2 and >95% humidity for 6 to 8 days. The cells were then dehydrated and fixed with acetone followed by acetylcholinesterase staining. The colonies were scored using a 5× objective, and 10× objective was used to examine colonies in greater detail.

[7] = system: platelets; assay: Platelet adhesion to fibrinogen; format: cell-based, human or C57B1/6 mice; settings: CNP-treated vs Lbab polypeptide-treated
Experimental: as §2

[8] = system: actin; assay: Platelet spreading assay, actin staining; format: cell-based; settings: FIG. 10
Experimental: as §3, §1

[9] = system: tubulin; assay: Tubulin polymerization assay; format: biochemical; settings: nucleation, growth and steady state phases; FIG. 11
Experimental: To demarcate whether the effects of CNP on microtubules was direct or indirect, a microtubule polymerization assay from cytoskeleton was utilized as per manufacturer's protocol. The assay studied all three phases of microtubule formation, namely nucleation, growth, and steady state equilibrium.
A 96-well plate was warmed in the incubator to 37° C. for 10 minutes. During this time, 10× stock solutions of compounds to be tested were prepared. 5 μL of control buffer, 5 μL of the 10× paclitaxel stock, and 5 μL of the 10× test compound were added to their respective wells. Next, the 96 well plate was placed back into warm plate reader for 1 minute. Finally, 50 μL of the tubulin reaction mix was added to each of the wells as quickly as possible, and the plate reader was started.

[10] = system: platelets; assay: Platelet aggregation (lumi-aggregometer); format: cell-based; settings: data not shown
Experimental: The role of CNP on platelet aggregation and platelet adhesion to fibrinogen, fibronectin, and collagen were assessed. Human platelets or platelets from C57B1/6 mice were isolated and treated with either CNP or the Lbab polypeptide for 30 minutes at 37° C. with 5% CO2. Following treatment, the platelets were gently added to cover slips pre-blocked with 1% BSA and pre-coated with fibrinogen, fibronectin, or collagen (50 μg/mL, CHRONOLOG Corp., Havertown, Pa.). Ca^+2 and Mg^+2 were added to 1 mM and 2 mM, respectively, before incubation at 37° C. for 30 minutes. The platelets were then fixed and permeabilized before staining with TRITC Phalloidin (0.5 μg/mL; Sigma) for an hour. […] The images were analyzed using ImageJ software.
Platelet aggregation was performed at 37° C. in lumi-aggregometer in the presence of luciferin-luciferase to simultaneously measure light transmission and secretion of dense granule-derived ATP. […] Platelet aggregation and secretion was measured in a lumi-aggregometer (Chrono-Log, Havertown, Pa.) for 1 minute following which the polypeptide (CNP or Lbab) was added to the platelets, and aggregation and secretion were measured once again for 2 minutes in order to determine if the polypeptide itself activates the platelets. […] Aggregation and secretion were measured for 15 minutes.

[11] = system: platelets; assay: cGMP production in washed platelets; format: cell-based, mouse; settings: 30 minutes at 37° C. in Tyrode's buffer with 1 mM Ca+2; FIG. 6
Experimental: Platelet isolation was adapted from studies described elsewhere (Boylan et al., Blood, 108(3):908-14 (2006); Moraes et al., J. Thromb. Haemost., 8(11):2530-41 (2010); and Bougie et al., Blood, 116(16):3033-8 (2010)). Briefly, C57BL/6 mice were anesthetized with ketamine/xylazine. Blood was obtained from the vena cava and collected into 3.8% sodium citrate. The whole blood was then diluted with equal volumes of Tyrode's buffer containing PGE1 (50 ng/mL), glucose (1 mg/mL), and BSA (2.5 mg/mL) before being spun at 280×g to obtain platelet rich plasma (PRP). The upper […] of the PRP was collected and spun for 10 minutes to collect the platelets. The platelets were then washed with Tyrode's buffer before any analysis was performed. The platelets were counted, visualized by microscopy, and then used for FACS analysis, immunostaining, and western blotting. CD41, CD42D, and GC-B expression was detected by FACS (FIG. 5, middle panel).
The effect of CNP on cGMP production in platelets was studied. Washed platelets were treated with CNP or the mutant Lbab polypeptide for 30 minutes at 37° C. with 5% CO2 in Tyrode's buffer with 1 mM Ca^+2. After the incubation, the cells were lysed, and the amount of cGMP was calculated according to the standard curve that was generated from parallel reactions within the same experiment.

Sequence of GC-B present on megakaryocytes (Q6VVW5 23-1047 limits assumed): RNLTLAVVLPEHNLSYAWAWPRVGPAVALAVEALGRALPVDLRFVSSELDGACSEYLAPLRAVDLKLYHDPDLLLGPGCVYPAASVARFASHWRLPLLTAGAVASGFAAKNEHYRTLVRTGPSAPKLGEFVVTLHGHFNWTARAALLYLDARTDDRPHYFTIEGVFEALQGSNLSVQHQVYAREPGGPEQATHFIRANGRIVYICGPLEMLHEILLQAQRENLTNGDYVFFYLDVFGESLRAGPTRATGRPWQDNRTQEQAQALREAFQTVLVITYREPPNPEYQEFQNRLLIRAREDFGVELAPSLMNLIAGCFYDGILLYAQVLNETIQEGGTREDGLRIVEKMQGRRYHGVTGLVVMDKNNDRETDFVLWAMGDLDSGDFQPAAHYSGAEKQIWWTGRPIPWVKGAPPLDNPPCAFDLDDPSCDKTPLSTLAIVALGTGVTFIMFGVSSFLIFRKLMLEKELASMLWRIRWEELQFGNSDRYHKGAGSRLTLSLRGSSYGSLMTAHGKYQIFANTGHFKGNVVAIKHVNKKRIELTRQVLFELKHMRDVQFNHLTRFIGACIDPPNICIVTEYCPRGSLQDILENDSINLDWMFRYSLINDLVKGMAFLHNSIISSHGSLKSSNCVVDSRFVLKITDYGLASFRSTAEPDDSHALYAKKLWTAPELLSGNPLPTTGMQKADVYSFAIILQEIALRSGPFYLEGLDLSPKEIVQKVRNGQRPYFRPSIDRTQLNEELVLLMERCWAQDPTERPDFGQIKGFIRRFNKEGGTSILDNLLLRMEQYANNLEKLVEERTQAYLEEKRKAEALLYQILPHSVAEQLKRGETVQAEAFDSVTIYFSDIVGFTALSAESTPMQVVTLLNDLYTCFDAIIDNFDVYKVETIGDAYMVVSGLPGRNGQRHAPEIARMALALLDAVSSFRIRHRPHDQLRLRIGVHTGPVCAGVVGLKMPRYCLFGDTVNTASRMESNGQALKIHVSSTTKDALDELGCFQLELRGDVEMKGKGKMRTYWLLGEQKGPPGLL

Q: Which results are given for “Lbab: single residue mutant CNP (SEQ ID NO:2) with Arg to Gly substitution, used as control polypeptide (GLSKGCFGLKLDGIGSMSGLGC; Mutant CNP; listed as Homo sapiens) [reference compound]”?
A: tubulin distribution in spreading platelets [1]: does not demonstrate such an affect; number of platelets adhered to collagen ([2]; 500 nM): 4536±43; number of platelets adhered to collagen ([2]; 1000 nM): 4390±24; platelet adhesion to collagen (in words) [2]: near normal platelet adhesion to collagen; pseudopodia formation of platelets adhered to collagen [2]: normal sprouting of pseudopodia; marginal band formation (tubulin) within platelets [3]: capable of forming clear marginal bands; cGMP production by megakaryocytes [4]: but not the Lbab polypeptide, stimulated cGMP production

Q: How did the “tubulin distribution in spreading platelets” value [1] turn out when c-type natriuretic peptide [CNP] was run?
A: Its value is “inhibits tubulin distribution in spreading platelets”.

Q: What about the “adhesion of platelets to fibronectin” value [5] of the same molecule?
A: The value was “no significant difference”.

Q: What about the megakaryocyte colony formation [6] of the same molecule?
A: The megakaryocyte colony formation was “inhibited colony formation”.

Q: What about the megakaryocyte colony size [6] of the same molecule?
A: The megakaryocyte colony size was “significantly affected colony size”.

Q: What about the “number of platelets adhered to collagen” value ([2]; 500 nM) of the same molecule?
A: Its value is 2451±39.

Q: What about the “number of platelets adhered to collagen” value ([2]; 1000 nM) of the same molecule?
A: The value was 1712±20.

Q: And the “platelet adhesion to collagen (in words)” value [2]?
A: Its value is “attenuated platelet adhesion to collagen”.

Q: What about the “filopodia of platelets in the presence of collagen” value ([2]; electron microscopy, varying concentrations, FIG. 8) of the same molecule?
A: The value was “aberrant filopodia”.

Q: What about the “pseudopodia formation of platelets adhered to collagen” value [2] of the same molecule?
A: The value was “abnormal pseudopodia formation”.

Q: What about the “marginal band formation (tubulin) within platelets” value [3] of the same molecule?
A: Its value is “decreased marginal band formation”.

Q: What about the “adhesion of platelets to fibrinogen” value [7] of the same molecule?
A: Its value is “no significant difference”.

Q: What about the “actin distribution / function in spreading platelets” value [8] of the same molecule?
A: Its value is “minimal effect on actin distribution; also recorded: does not influence actin function significantly”.

Q: And the “tubulin polymerization (O.D.)” value [9]?
A: Its value is “has effects on the growth and steady state phases of tubulin polymerization”.

Q: What about the platelet aggregation [10] of the same molecule?
A: The platelet aggregation was “unaffected”.

Q: And the “cGMP production in platelets” value [11]?
A: Its value is “did not affect cGMP levels”.

Q: And the “cGMP production by megakaryocytes” value [4]?
A: The value was “stimulated a dose-dependent increase in cGMP formation”.

Q: Which “tubulin distribution in spreading platelets” value [1] does the source give for `CC(=O)O[C@H]1C(=O)[C@@]2(C)[C@H]([C@H](OC(=O)c3ccccc3)[C@]3(O)C[C@H](OC(=O)[C@H](O)[C@@H](NC(=O)c4ccccc4)c4ccccc4)C(C)=C1C3(C)C)[C@]1(OC(C)=O)CO[C@@H]1C[C@@H]2O` [Taxol, paclitaxel, reference compound] here?
A: Its value is “inhibits tubulin distribution in spreading platelets”.

Q: And the “actin distribution / function in spreading platelets” value [8]?
A: Its value is “minimal effect on actin distribution”.

Q: And the “tubulin polymerization (O.D.)” value [9]?
A: Its value is “effects on the growth and steady state phases of tubulin polymerization”.
